Source: patent US20030176479A1, “Use of selective EP4 receptor agonists for the treatment of liver failure, loss of patency of the ductus arteriosus, glaucoma or ocular hypertension” (priority 2002, published 2003)

Legend:
human EP3 receptor = target: T1, human EP3 receptor (Homo sapiens, UniProt P43115); assay: Human EP3 receptor binding assay (3H-PGE2 displacement, 293S cell membranes); settings: displacement of 3H-prostaglandin E2, 293S membranes, 1 hour at 25° C.
T1 construct: expressed in transfected cells
T1 sequence (P43115 1-390): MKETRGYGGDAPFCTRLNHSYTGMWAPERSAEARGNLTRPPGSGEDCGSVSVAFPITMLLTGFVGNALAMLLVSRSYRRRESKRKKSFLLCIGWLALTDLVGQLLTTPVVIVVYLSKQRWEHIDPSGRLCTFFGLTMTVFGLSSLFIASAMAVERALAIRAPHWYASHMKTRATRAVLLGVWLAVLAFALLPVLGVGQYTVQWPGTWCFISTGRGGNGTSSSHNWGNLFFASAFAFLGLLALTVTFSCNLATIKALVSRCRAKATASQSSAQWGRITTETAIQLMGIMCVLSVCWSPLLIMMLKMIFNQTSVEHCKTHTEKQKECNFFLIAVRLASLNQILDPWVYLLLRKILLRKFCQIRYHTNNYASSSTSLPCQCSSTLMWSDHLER
Source text: (§1) The compounds of Formula I or II, which are useful in the methods of the present invention, bind to the prostaglandin E2 type 4 receptor (EP4 receptor). The full-length coding sequence for the human EP1 receptor is made in accordance with the procedure in Funk et al., Journal of Biological Chemistry, 1993, 268, 26767-26772. The full-length rat EP2 receptor is made in accordance with the procedure in Nemoto et al., Prostaglandins and other Lipid Mediators, 1997, 54, 713-725. The full-length coding sequence for the human EP3 receptor is made in accordance with the procedure in Regan et al., British Journal of Pharmacology, 1994, 112, 377-385. The full-length coding sequence for the rat EP4 receptor is made in accordance with the procedure in Sando et al., Biochem. Biophys. Res. Comm. 1994, 200,1329-1333. These full-length receptors are used to prepare 293S cells expressing the human EP1, rat EP2, human EP3 or rat EP4 receptors.
(§2) Human EP1, Rat EP2, Human EP3, Rat EP4 Receptor Binding Assay
(§3) The full-length receptors described above are used to prepare 293S cells expressing the EP1, EP2, EP3, and EP4 receptors.
(§4) 293S cells expressing either the human EP1, rat EP2, human EP3 or rat EP4 prostaglandin E2 receptors are generated according to methods known to those skilled in the art. Typically, PCR (polymerase chain reaction) primers corresponding to the 5′ and 3′ ends of the published full length receptor are made according to the well known methods disclosed above and are used in an RT-PCR (reverse transcriptase-polymerase chain reaction) reaction using the total RNA from human kidney (for EP1), rat kidney (for EP2), human lung (for EP3), or rat kidney (EP4) as a source. PCR products are cloned by the TA overhang method into pCR2.1 (Invitrogen Corporation, Carlsbad, Calif.) and identity of the cloned receptor is confirmed by DNA sequencing. For expression of the rat EP2 receptor, the confirmed cDNA is subcloned into the mammalian expression vector PURpCl, a vector generated by subcloning the selectable marker for puromycin resistance into the mammalian expression vector pCl (Promega, Madison, Wis.)
(§5) 293S cells are transfected with either the cloned human EP1 or EP3 receptor in pcDNA3 by electroporation. Stable cell lines expressing either the human EP1 or EP3 receptor are established following selection of transfected cells with G418. 293S cells are transfected with the cloned rat EP2 receptor in PURpCi by lipid mediated transfection. Stable cell lines expressing the rat EP2 receptor are established following selection of transfected cells with puromycin. 293S cells are transfected with the cloned rat EP4 receptor in pcDNA3 by lipid mediated transfection. Stable cell lines expressing the rat EP4 receptor are established following selection of transfected cells with Geneticin® (Invitrogen, Carlsbad, Calif.).
(§6) Clonal cell lines expressing the maximal number of receptors are chosen following a whole cell ^3H-PGE2 binding assay using unlabeled PGE2 as a competitor.
(§7) Membrane Preparation: All operations are performed at 4° C. Transfected cells expressing either prostaglandin E2 type 1, type 2, type 3, or type 4 (EP1, EP2, EP3, or EP4, respectively) receptors are harvested and suspended to 2 million cells per ml in Buffer A [50 mM Tris-HCl (pH 7.4), 10 mM MgCI2, 1 mM EDTA, 1 mM Pefabloc peptide, (Boehringer Mannheim Corp., Indianapolis, Ind.), 10 uM Phosporamidon peptide, (Sigma, St. Louis, Mo.), 1 uM pepstatin A peptide, (Sigma, St. Louis, Mo.), 10 uM elastatinal peptide, (Sigma, St. Louis, Mo.), 100 uM antipain peptide, (Sigma, St. Louis, Mo.)]. The cells are lysed by sonification with a Branson Sonifier (Branson Ultrasonics Corporation, Danbury, Conn.) in 2 fifteen-second bursts. Unlysed cells and debris are removed by centrifugation at 100 ×g for 10 min. Membranes are then harvested by centrifugation at 45,000×g for 30 minutes. […]

human EP1 receptor = target: T2, human EP1 receptor (Homo sapiens, UniProt P34995); assay: Human EP1 receptor binding assay (3H-PGE2 displacement, 293S cell membranes); settings: displacement of 3H-prostaglandin E2, 293S membranes, 1 hour at 25° C.
T2 construct: expressed in transfected cells
T2 sequence (P34995 1-402): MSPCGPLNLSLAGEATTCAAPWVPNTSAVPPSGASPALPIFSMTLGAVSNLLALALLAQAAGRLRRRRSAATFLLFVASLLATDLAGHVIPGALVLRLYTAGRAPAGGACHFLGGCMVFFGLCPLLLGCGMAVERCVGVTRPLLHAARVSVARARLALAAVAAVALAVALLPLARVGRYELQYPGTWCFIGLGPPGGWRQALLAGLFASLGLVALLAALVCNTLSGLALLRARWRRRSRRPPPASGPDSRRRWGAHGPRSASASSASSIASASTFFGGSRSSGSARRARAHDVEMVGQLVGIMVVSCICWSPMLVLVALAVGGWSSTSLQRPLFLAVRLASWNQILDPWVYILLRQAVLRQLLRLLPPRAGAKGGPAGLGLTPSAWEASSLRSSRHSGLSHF
Source text: as §1, §2, §3, §4, §5, §6, §7

SMILES | IC50 (human EP3 receptor) [µM] | IC50 (human EP1 receptor) [µM]
O=C(O)CCCCCCN1C(=O)CC[C@@H]1CC[C@@H](O)Cc1cccc(Cl)c1 [Example 1, 7-{2S-[4-(3-Chloro-phenyl)-3R-hydroxy-butyl]-5-oxo-pyrrolidin-1-yl}-heptanoic acid] | > 3.2 | > 3.2
O=C(O)CCCCCCN1C(=O)CC[C@@H]1CC[C@@H](O)Cc1cccc(C(F)(F)F)c1 [Example 2, 7-{2S-[3R-hydroxy-4-(3-trifluoromethyl-phenyl)-butyl]-5-oxo-pyrrolidin-1-yl}-heptanoic acid] | > 3.2 | > 3.2
O=C1CC[C@H](CCC(O)Cc2cccc(Cl)c2)N1CCCCCCc1nn[nH]n1 (stereo partly drawn) [Example 3, 5S-[4-(3-Chloro-phenyl)-3-hydroxy-butyl]-1-[6-(2H-tetrazol-5-yl)-hexyl]-pyrrolidin-2-one] | > 3.2 | > 3.2
O=C1CC[C@H](CC[C@@H](O)Cc2cccc(C(F)(F)F)c2)N1CCCCCCc1nn[nH]n1 [Example 4, 5S-[3R-Hydroxy-4-(3-trifluoromethyl-phenyl)-butyl]-1-[6-(2H-tetrazol-5-yl)-hexyl]-pyrrolidin-2-one] | > 3.2 | > 3.2
O=C1CCC(CCC(O)Cc2cccc(-c3ccccc3)c2)N1CCCCCCc1nn[nH]n1 (stereo not drawn) [Example 6, 5-(4-Biphenyl-3-yl-3-hydroxy-butyl)-1-[6-(2H-tetrazol-5-yl)-hexyl]-pyrrolidin-2-one] | > 3.2 | > 3.2
O=C(O)CCCCCCN1C(=O)CCC1CCC(O)Cc1ccccc1 (stereo not drawn) [Example 9, 7-(2-(3-hydroxy-4-phenyl-butyl)-5-oxo-pyrrolidin-1-yl)-heptanoic acid] | > 3.2 | > 3.2
